Test results from patent publication EP4702986A1, “POLYPEPTIDE AND USE THEREOF” (Biocells (Beijing) Biotech Co., Ltd., priority 2023, dated 2024).
pEC50: −log10 of the molar value. Numbered stars: 1 amine (or outer) side, 2 acyl side, 3 side chain; on linkers, the order of the positions; unused ones are H or OH. Side chains are listed from the residue outwards. Ends that are not written are not given here. Peptide text beside a SMILES is read from it. * marks the point of attachment. X1 = C[C@H](NC(=O)[C@@H]1CCCN1C(=O)[C@@H](N)CSC1CC(=O)N(CCC(=O)*)C1=O)C(=O)N[C@@H](CCCCN)C(=O)O; γGlu = O=C(O)[C@H](CCC(=O)[*:2])N[*:1]; Fumaroyl = O=C(O)/C=C/C(=O)*; Suc = O=C(CCC(=O)[*:2])[*:1]; Lauroyl = CCCCCCCCCCCC(=O)*; AEEA = NCCOCCOCC(=O)O

Experiments:
rat ETB receptor = biological target: T1, rat ETB receptor (Rattus norvegicus, UniProt P21451); assay: Determination of EC50s of polypeptides against rat ETB receptor; format: cell-based; conditions: Table 8, rat ETB receptor; for pEC50: read-out: DETAR Agonist Activity EC50
T1 construct: expressed in transfected cells
T1 sequence (P21451 27-442): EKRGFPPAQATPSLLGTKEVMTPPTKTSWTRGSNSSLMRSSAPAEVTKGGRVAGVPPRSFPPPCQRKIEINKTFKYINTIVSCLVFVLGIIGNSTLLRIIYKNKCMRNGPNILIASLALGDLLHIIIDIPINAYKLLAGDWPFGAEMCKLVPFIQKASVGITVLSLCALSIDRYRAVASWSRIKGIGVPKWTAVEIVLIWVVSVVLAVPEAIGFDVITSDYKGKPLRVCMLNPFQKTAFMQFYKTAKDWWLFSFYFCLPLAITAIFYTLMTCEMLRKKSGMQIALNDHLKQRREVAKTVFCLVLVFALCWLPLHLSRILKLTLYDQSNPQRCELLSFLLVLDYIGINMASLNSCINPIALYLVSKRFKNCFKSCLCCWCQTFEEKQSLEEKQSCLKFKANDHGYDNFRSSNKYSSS
Method: (§1) 293T-17 cells were seeded at a density of 650,000 cells per well in a 6-well plate and cultured overnight in an incubator at 37°C and 5% CO2. Afterward, the cells were transfected with an expression vector, PCDNA3.1-hETB which contained a human ETB receptor gene, at a plasmid concentration of 2.5 µg per well. The cells were further cultured for 48 hours, and green fluorescence expression was observed under a fluorescence microscope. The cells were then digested with trypsin and counted. The activity of compounds on the human ETB receptor was determined with the IP-One Gq kit from Cisbio Bioassays. The cells were suspended in Stim Buffer provided in the kit and the cell suspension was added to a 96-well detection plate at 7 µL cell suspension (containing 30,000 cells) per well. The polypeptides to be tested (prepared according to the Preparation Example of the invention) were diluted in Stim B to obtain a gradient of 11 concentration points. For each concentration point, the polypeptides to be tested were dissolved in Stim B to be at a concentration of 2×, and added at 7 µL to the test cells, while 7 µL of PBS solution was added to the cells in the negative control wells. The plate was sealed and incubated at 37°C for 1 hour in a cell culture incubator. Detection wells, positive control wells containing human endothelin ET1 (ET1: […] (C1-C15,C3-C11)), and PBS control wells were each added with 3 µL of IP1 d2 working solution and 3 µL of IP1 Tb cryptotate Antibody working solution. The plate was then sealed and incubated in the dark at room temperature (25°C±5°C) for 1 hour. The plate seal was removed, and the […] at 665 nm and 620 nm was measured with an ID5 microplate reader. The ratio of the acceptor emission signal to the donor emission signal, i.e., (signal at 665 nm/signal at 620 nm)×10^4, was calculated for each well. With F representing the average value of values of signal at 665 nm/signal at 620 nm for the test samples at various concentrations, a scatterplot was plotted, where the abscissa represented the F value, and the ordinate represented the logarithmic value of the peptide concentration. A curve was fitted with an appropriate method to calculate EC50 values of the polypeptides against the human ETB receptor. Another method was provided for fitting a curve where activation rate of the test polypeptides at each concentration relative to the positive control sample human endothelin ET1 was calculated first with the method in Example 1, and a scatterplot was plotted, where the abscissa represented the activation rate, and the ordinate represented the logarithmic value of the polypeptide concentration. A curve was fitted with an appropriate method to calculate the EC50 values of the polypeptides against the human ETB receptor.
The process is the same as that in Example 3, except that the transfected plasmid was expression vector PCDNA3.1-RETB which contained a rat ETB receptor gene. EC50 values of the polypeptides against the rat ETB receptor were calculated (see Figures 11-13). The sequence of the rat ETB receptor (NCBI accession number: X57764.1).

dog ETB receptor = biological target: T2, dog ETB receptor (Canis lupus familiaris, UniProt P56497); assay: Determination of EC50s of polypeptides against dog ETB receptor; format: cell-based; conditions: Table 7, dog ETB receptor; for pEC50: read-out: DETAR Agonist Activity EC50
T2 construct: expressed in transfected cells
T2 sequence (P56497 27-442): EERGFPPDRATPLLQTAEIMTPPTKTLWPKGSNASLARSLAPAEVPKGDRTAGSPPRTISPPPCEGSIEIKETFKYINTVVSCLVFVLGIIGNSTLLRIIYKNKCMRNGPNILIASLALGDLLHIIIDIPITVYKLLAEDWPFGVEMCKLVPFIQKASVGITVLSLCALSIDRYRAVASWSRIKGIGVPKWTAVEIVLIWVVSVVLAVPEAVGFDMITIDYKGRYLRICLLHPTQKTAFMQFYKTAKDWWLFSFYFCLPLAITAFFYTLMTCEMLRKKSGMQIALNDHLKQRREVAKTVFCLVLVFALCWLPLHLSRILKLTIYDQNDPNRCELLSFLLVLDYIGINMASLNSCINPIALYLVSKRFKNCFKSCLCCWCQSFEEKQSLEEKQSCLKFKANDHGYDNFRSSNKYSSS
Method: as §1
The process is the same as that in Example 3, except that the transfected plasmid was expression vector PCDNA3.1-DETB which contained a dog ETB receptor gene. EC50 values of the polypeptide against the dog ETB receptor were calculated (see Figures 8-10). The sequence of the dog endothelin receptor B (NCBI accession number: NM_001010943.2).

Molecule	pEC50 (rat ETB receptor)	pEC50 (dog ETB receptor)	DETAR Agonist Activity, % (rat ETB receptor; @10nM)	DETAR Agonist Activity, % (rat ETB receptor; @100nM)	DETAR Agonist Activity, % (dog ETB receptor; @10nM)	DETAR Agonist Activity, % (dog ETB receptor; @100nM)
CCCCCCCCCCCC(=O)N[C@@H](CCC(=O)NCCOCCOCC(=O)NCCCC[C@H](NC(=O)[C@H](Cc1c[nH]cn1)NC(=O)[C@H](C)NC(=O)[C@H](Cc1ccccc1)NC(=O)[C@H](Cc1ccc(O)cc1)NC(=O)[C@@H](NC(=O)[C@H](C)NC(=O)[C@H](CCC(=O)O)NC(=O)[C@H](CCC(=O)O)NC(=O)[C@H](CC(=O)O)NC(=O)/C=C/C(=O)O)C(C)C)C(=O)N[C@@H](CC(=O)O)C(=O)N[C@H](C(=O)N[C@H](C(=O)N[C@@H](Cc1c[nH]c2ccccc12)C(=O)O)[C@@H](C)CC)C(C)C)C(=O)O [BX229-Na] (Fumaroyl-DEEAVYFAHK([AEEA-γGlu-Lauroyl])DVIW-OH)	8.14	7.75	–	–	–	–
CC[C@H](C)[C@H](NC(=O)[C@H](CC(=O)O)NC(=O)[C@H](CCCCNC(=O)COCCOCCNC(=O)CCN1C(=O)CC(SC[C@H](N)C(=O)N2CCC[C@H]2C(=O)N[C@@H](C)C(=O)N[C@@H](CCCCN)C(=O)O)C1=O)NC(=O)[C@H](Cc1c[nH]cn1)NC(=O)[C@H](C)NC(=O)[C@H](Cc1ccccc1)NC(=O)[C@H](Cc1ccc(O)cc1)NC(=O)[C@@H](NC(=O)[C@H](C)NC(=O)[C@H](CCC(=O)O)NC(=O)[C@H](CCC(=O)O)NC(=O)[C@H](CC(=O)O)NC(=O)/C=C/C(=O)O)C(C)C)C(=O)N[C@H](C(=O)N[C@@H](Cc1c[nH]c2ccccc12)C(=O)O)[C@@H](C)CC (stereo partly drawn) [BX-95] (Fumaroyl-DEEAVYFAHK([AEEA-X1])DIIW-OH)	7.62	7.16	–	–	–	–
Fum-DEEEVYFAHKDIIW (Fumaroyl-DEEEVYFAHKDIIW) [BX-52]	–	–	22.36%@10n M	389.09%@100 nM	76.82%@10 nM	104.49%@1 00nM
Fum-DEEEVYFAHOrnDIIW [BX-59]	–	–	314.15%@10n M	46.94%@100n M	14.7%@10n M	117.46%@1 00nM
Suc-DE cyclo(CEEC)YFAHKDIIW (Suc-DECEECYFAHKDIIW; not fully specified (bridges); printed as Suc-DE cyclo(CEEC)YFAHKDIIW; also: cyclo(CEEC) in N-terminal extension, bond type not given here) [BX-57]	–	–	67.42%	218.34%	–	49.81%
